Results from PMC4377892, “Gastroprotective Efficacy and Safety Evaluation of Scoparone Derivatives on Experimentally Induced Gastric Lesions in Rodents” (Nutrients, 2015).
One block for each molecule: values may come before it.

Legend:
[1] = system: HCl/ethanol-induced gastric ulcers; test: HCl/ethanol-induced gastritis in rats; format: in vivo, Sprague-Dawley (S.D.) rats; conditions: HCl/ethanol-induced GU; for ED50: Rattus norvegicus, oral, dose-response, rats, read-out: ED50 (50% protection against GU)
Experimental: The male S.D. rats were fasted for 24 h prior to oral dosing with the normal saline (vehicle), rebamipide (a positive control), or test compounds (Figure 1) at a range of doses, which are described in the results. One hour after the treatments, all animals orally received 0.5 mL of a mixture of 0.15 M HCl and 60% ethanol solution. Animals were sacrificed by cervical dislocation 3 h after the administration of HCl/ethanol solution, the stomach was removed and fixed in 4% formalin solution for 1 h, opened along the greater curvature, and photographed using a camera attached to a dissection microscope. Total area (mm^2) of mucosal erosive lesion was measured using Photoshop CS4 Extended (Adobe, San Jose, CA, USA) software. The percentage of ulcer inhibition by test compounds was calculated by the following formula: % protection of ulceration = ((%Uarea vehicle treated ulcer control–%Uarea compound treated)/%Uarea vehicle treated ulcer control) × 100(1) where %Uarea is the percent ulcer area of the total gastric mucosa area. ED50 values (50% protection against GU) were calculated from the dose-response curves of logarithmic plots of each test compound.

[2] = system: indomethacin-induced gastric ulcers; test: Indomethacin-induced gastritis in rats; format: in vivo, Sprague-Dawley (S.D.) rats; conditions: for gastroprotective activity (in words): oral 40 mg/kg, indomethacin-induced GU, rats; for GU reversal: stated for both HCl/ethanol- and indomethacin-induced GU
Experimental: The male S.D. rats were fasted for 24 h prior to oral dosing with normal saline, rebamipide, or test compounds at a dose of 40 mg/kg body weight. One hour after treatment, all animals orally received 0.5 mL indomethacin solution (80 mg/kg body weight, suspended in 5% sodium bicarbonate). Animals were sacrificed by cervical dislocation 6 h after the administration of indomethacin solution, the stomach was removed and fixed in 2% formalin solution for 30 min, opened along the greater curvature, and photographed using a camera attached to a dissection microscope. Total area (mm^2) of mucosal erosive lesion was measured and the % protection was calculated as described above.

CYP3A4 = CYP3A4 (Homo sapiens, UniProt P08684); test: in vitro; conditions: recombinant enzyme
Experimental: (§1) The inhibition assays for human cytochrome P450 (CYP) enzyme activities were performed in multiwall plates using CYP2C9 and CYP3A4 screening kits (Invitrogen Co., Carlsbad, CA, USA) according to the manufacturer’s instruction. The test compounds Ketoconazole (a positive inhibition control for CYP3A4) or Sulfaphenazole (a positive inhibition control for CYP2C9) were mixed with each master pre-mix comprising CYP2C9 or CYP3A4 BACULOSOMES® reagent and the regeneration system, which contained glucose-6-phosphate and glucose-6-phosphate dehydrogenase. The mixture was incubated at room temperature for 20 min. Following incubation, a CYP enzyme-specific substrate (Vivid BOMCC) and NADP^+ were added and the mixture was incubated at room temperature for 30 min. The reaction was stopped by the addition of a Stop Reagent (CYP450 isozyme specific inhibitors). CYP activity was evaluated by measuring the fluorescence of the fluorescent metabolite generated from each CYP enzyme-specific substrate. The fluorescence was measured using a fluorescent plate reader at 409 nm (excitation) and 460 nm (emission). All experiments were performed in duplicate, and the results are expressed as percent inhibition.

CYP2C9 = CYP2C9 (Homo sapiens, UniProt P11712); test: in vitro
Experimental: as §1

adherent gastric mucus = test: Measurement of adherent gastric mucus (alcian blue) in HCl/ethanol-treated rats; format: in vivo, Sprague-Dawley (S.D.) rats; conditions: 20 mg/kg body weight oral, 1 h before HCl/ethanol, mean ± SEM n = 6
Experimental: The male S.D. rats were fasted for 24 h prior to oral dosing with normal saline, rebamipide, or test compounds at a dose of 20 mg/kg body weight. One hour after the treatments, all animals orally received 0.5 mL of a mixture of 0.15 M HCl and 60% ethanol solution. Animals were sacrificed by cervical dislocation 3 h after the administration of HCl/ethanol solution, the stomach was removed, and parts of the stomach mucosa were rinsed with ice-cold 0.25 M sucrose. Measurement of adherent gastric mucosal mucus was assayed using alcian blue, a dye which stains acid mucosubstances, as previously described. In brief, a 100 mm^2 portion of the glandular region of the stomach was excised with a scalpel, and soaked in 0.1% alcian blue dissolved in 0.16 M of sucrose buffered with 0.05 M sodium acetate (pH 5.8) for 2 h. The unbound dye was removed using two successive washes with 0.25 M sucrose. The dye complex with mucus was extracted using 30% docusate sodium salt for 2 h. After centrifugation at 2600× g for 10 min, the optical density of the alcian blue solution was measured at 620 nm and calculated using the calibration curve. The adherent gastric mucosal mucus was expressed as the amount of the alcian blue (μg/g tissue).

ICR mice = test: Acute oral toxicity in mice; format: in vivo; conditions: for Mortality / Relative Organ Weight, Heart / Relative Organ Weight, Kidney / Relative Organ Weight, Liver / Relative Organ Weight, Lung / Relative Organ Weight, Spleen / alteration in body weight vs vehicle control (in words): single oral 1000 mg/kg, 14 days; for Mortality: deaths/animals; for Relative Organ Weight, Heart / Relative Organ Weight, Kidney / Relative Organ Weight, Liver / Relative Organ Weight, Lung / Relative Organ Weight, Spleen: mean ± SEM n = 10; for LD50: oral, Probit method; for alteration in body weight vs vehicle control (in words): male and female ICR mice; for acute toxicity (in words): single oral administration 1000 mg/kg body weight, ICR mice
Experimental: Acute toxicity studies were performed both in male and female ICR mice as described previously. Vehicle control and test compound treated groups consisted of 10 animals each. Mice were acclimatized for 7 days before experimentation. Before dosing with test compounds, animals were fasted for 24 h with access to adequate drinking water in cases with wire mesh bottoms, to prevent coprophagy. The treated group received test compounds, and the control group received saline by gavage at a dose of 1000 mg/kg body weight. […] The mortality, body measurements, and behavior were assessed and recorded daily for 14 days after treatment. The macroscopic analyses and weight of vital organs, such as the liver, kidney, spleen, lung, and heart were compared between the animals treated with test compounds and vehicle.

[3] = single oral dose 40 mg/kg body weight, S.D. rats

Sequence of CYP2C9 (P11712 whole entry): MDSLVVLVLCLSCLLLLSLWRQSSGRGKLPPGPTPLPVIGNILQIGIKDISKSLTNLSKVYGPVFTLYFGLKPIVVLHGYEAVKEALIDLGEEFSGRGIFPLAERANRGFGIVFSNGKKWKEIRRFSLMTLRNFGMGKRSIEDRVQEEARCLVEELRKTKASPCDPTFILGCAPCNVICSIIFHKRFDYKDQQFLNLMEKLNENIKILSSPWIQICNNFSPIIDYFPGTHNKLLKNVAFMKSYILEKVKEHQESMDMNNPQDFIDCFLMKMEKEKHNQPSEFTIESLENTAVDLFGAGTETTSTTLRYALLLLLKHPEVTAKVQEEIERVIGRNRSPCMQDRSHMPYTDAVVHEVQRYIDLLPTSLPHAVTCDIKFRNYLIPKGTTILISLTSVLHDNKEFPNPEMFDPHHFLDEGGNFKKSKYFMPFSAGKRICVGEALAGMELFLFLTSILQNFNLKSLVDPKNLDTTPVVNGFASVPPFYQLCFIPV
Sequence of CYP3A4 (P08684 whole entry): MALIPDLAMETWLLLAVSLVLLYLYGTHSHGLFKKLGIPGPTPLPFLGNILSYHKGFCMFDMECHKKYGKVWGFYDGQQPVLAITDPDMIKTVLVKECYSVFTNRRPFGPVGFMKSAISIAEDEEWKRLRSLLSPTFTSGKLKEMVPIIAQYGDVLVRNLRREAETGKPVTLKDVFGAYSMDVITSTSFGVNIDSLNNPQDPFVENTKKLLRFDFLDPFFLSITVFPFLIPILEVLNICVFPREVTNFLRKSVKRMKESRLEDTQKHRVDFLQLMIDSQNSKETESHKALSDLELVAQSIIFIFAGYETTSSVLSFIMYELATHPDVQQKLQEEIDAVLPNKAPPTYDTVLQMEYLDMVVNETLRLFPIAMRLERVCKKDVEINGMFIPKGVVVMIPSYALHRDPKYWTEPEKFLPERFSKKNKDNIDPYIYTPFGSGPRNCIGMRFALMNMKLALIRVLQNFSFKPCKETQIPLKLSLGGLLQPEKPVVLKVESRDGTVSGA

SMILES: COc1cc2oc(=O)ccc2c(OC)c1OC [Compound 2, 5,6,7-Trimethoxycoumarin]
- ED50 [1]: 3.94 mg/kg
- protection rate (gastric lesion) [1, 3]: 90.0%
- gastroprotective activity (in words) [2]: effectively inhibited
- GU reversal [2]: over 90%
- Adherent Mucus (adherent gastric mucus): 1424 ± 83 μg alcian blue/g tissue
- Mortality (ICR mice; female mice): 0/10
- Relative Organ Weight, Heart (ICR mice; female mice): 0.47 ± 0.05 % body weight
- Relative Organ Weight, Kidney (ICR mice; female mice): 1.22 ± 0.09 % body weight
- Relative Organ Weight, Liver (ICR mice; female mice): 4.21 ± 0.64 % body weight
- Relative Organ Weight, Lung (ICR mice; female mice): 0.69 ± 0.07 % body weight
- Relative Organ Weight, Spleen (ICR mice; female mice): 0.45 ± 0.09 % body weight
- Mortality (ICR mice; male mice): 0/10
- Relative Organ Weight, Heart (ICR mice; male mice): 0.46 ± 0.07 % body weight
- Relative Organ Weight, Kidney (ICR mice; male mice): 1.56 ± 0.05 % body weight
- Relative Organ Weight, Liver (ICR mice; male mice): 5.84 ± 0.23 % body weight
- Relative Organ Weight, Lung (ICR mice; male mice): 0.68 ± 0.05 % body weight
- Relative Organ Weight, Spleen (ICR mice; male mice): 0.36 ± 0.08 % body weight
- LD50 (ICR mice; female ICR mice): 3857 mg/kg body weight
- LD50 (ICR mice; male ICR mice): 3812 mg/kg body weight
- alteration in body weight vs vehicle control (in words) (ICR mice): no significant alteration
- acute toxicity (in words) (ICR mice): no toxicity
- inhibition at 30 min, 10 µM (CYP3A4): 19.1%
- inhibition at 30 min, 10 µM (CYP2C9; recombinant CYP2C9 BACULOSOMES, probe Vivid BOMCC): 0%

SMILES: COc1cc2ccc(=O)oc2c(OC)c1OC [Compound 3, 6,7,8-trimethoxycoumarin]
- ED50 [1]: 2.93 mg/kg
- protection rate (gastric lesion) [1, 3]: 95.8%
- gastroprotective activity (in words) [2]: effectively inhibited
- GU reversal [2]: over 90%
- Adherent Mucus (adherent gastric mucus): 1876 ± 51 μg alcian blue/g tissue
- Mortality (ICR mice; female mice): 0/10
- Relative Organ Weight, Heart (ICR mice; female mice): 0.54 ± 0.05 % body weight
- Relative Organ Weight, Kidney (ICR mice; female mice): 1.34 ± 0.05 % body weight
- Relative Organ Weight, Liver (ICR mice; female mice): 6.86 ± 0.78 % body weight
- Relative Organ Weight, Lung (ICR mice; female mice): 0.79 ± 0.06 % body weight
- Relative Organ Weight, Spleen (ICR mice; female mice): 0.48 ± 0.10 % body weight
- Mortality (ICR mice; male mice): 0/10
- Relative Organ Weight, Heart (ICR mice; male mice): 0.50 ± 0.02 % body weight
- Relative Organ Weight, Kidney (ICR mice; male mice): 1.58 ± 0.06 % body weight
- Relative Organ Weight, Liver (ICR mice; male mice): 4.92 ± 0.24 % body weight
- Relative Organ Weight, Lung (ICR mice; male mice): 0.69 ± 0.06 % body weight
- Relative Organ Weight, Spleen (ICR mice; male mice): 0.40 ± 0.07 % body weight
- LD50 (ICR mice; female ICR mice): 3500 mg/kg body weight
- LD50 (ICR mice; male ICR mice): 2111 mg/kg body weight
- alteration in body weight vs vehicle control (in words) (ICR mice): no significant alteration
- acute toxicity (in words) (ICR mice): no toxicity
- inhibition at 30 min, 10 µM (CYP3A4): 15.8%
- inhibition at 30 min, 10 µM (CYP2C9; recombinant enzyme): 0%

SMILES: COc1cc2ccc(=O)oc2c2c1OC(OC)O2 (stereo not shown) [Compound 5, 6-Methoxy-7,8-(1-methoxy)methylenedioxycoumarin]
- melting point: 202 to 203 °C

SMILES: O=c1ccc2cc3c(cc2o1)OCO3 [Compound 6, 6,7-Methylenedioxycomarin]
- melting point: 230 to 231 °C

SMILES: CC(=O)N1CCN(c2ccc(OCC3COC(Cn4ccnc4)(c4ccc(Cl)cc4Cl)O3)cc2)CC1 (stereo not shown) [Ketoconazole, reference compound]
- inhibition at 30 min, 20 µM (CYP3A4): 97.5%
- inhibition at 30 min, 20 µM (CYP2C9; recombinant enzyme): 0%

SMILES: O=C(NC(Cc1cc(=O)[nH]c2ccccc12)C(=O)O)c1ccc(Cl)cc1 (stereo not shown) [Rebamipide, reference compound]
- ED50 [1]: 9.53 mg/kg
- protection rate (gastric lesion) [1, 3]: 57.8%
- Adherent Mucus (adherent gastric mucus): 1584 ± 80 μg alcian blue/g tissue

SMILES: Nc1ccc(S(=O)(=O)Nc2ccnn2-c2ccccc2)cc1 [Sulfaphenazole, reference compound]
- inhibition at 30 min, 20 µM (CYP3A4): 0%
- inhibition at 30 min, 20 µM (CYP2C9; recombinant enzyme): 93.4%

The next lines start with results.

- inhibition at 30 min, 10 µM (CYP3A4): 32.7%
- inhibition at 30 min, 10 µM (CYP2C9; recombinant enzyme): 0%
SMILES: COc1cc2ccc(=O)oc2cc1OC [Compound 1, 6,7-dimethoxycoumarin]
- ED50 [1]: 4.21 mg/kg
- gastroprotective activity (in words) [1, 3]: significantly protected
- gastroprotective activity (in words) [2]: effectively inhibited

- melting point: 220 to 221 °C
SMILES: COc1cc2ccc(=O)oc2c2c1OCO2 [Compound 4, 6-methoxy-7,8-methylenedioxycoumarin]
- protection rate (gastric lesion) [1, 3]: 93.1%
- gastroprotective activity (in words) [2]: equipotent gastroprotective activity that of rebamipide

- melting point: 205 to 206 °C
SMILES: COC1Oc2cc3ccc(=O)oc3cc2O1 (stereo not shown) [Compound 7, 6,7-(1-Methoxy)methylenedioxycoumarin]
